Measured values reported in ChEMBL document CHEMBL1144680, “Structure-guided design of aminopyrimidine amides as potent, selective inhibitors of lymphocyte specific kinase: synthesis, structure-activity relationships, and inhibition of in vivo T cell activation” (J Med Chem, 2008).
The source made the active and inactive calls. The calls are words filed in the database; no cut-off is given here.

Experiments:
[1] = Clearance in Sprague-Dawley rat at 0.5 mg/kg, iv; type: ADME, organism-based; design: dose 0.5 mg/kg, route intravenous; settings: in vivo
[2] = tested on: Blood; experiment: Inhibition of anti-CD3-induced IL2 production in human whole blood by ELISA; type: functional, tissue-based
[3] = tested on: Blood; experiment: Inhibition of LPS-induced TNFalpha production in human whole blood by ELISA; type: functional, tissue-based
[4] = tested on: Mus musculus; experiment: Plasma concentration in BALB/c mouse at 10 mg/kg, po; type: ADME, organism-based; design: dose 10 mg/kg, route oral; settings: in vivo
[5] = Oral bioavailability in Sprague-Dawley rat at 2 mg/kg; type: ADME, organism-based; settings: in vivo
[6] = Volume of distribution at steady state in Sprague-Dawley rat at 0.5 mg/kg, iv; type: ADME, organism-based; design: dose 0.5 mg/kg, route intravenous; settings: in vivo, read-out: Vdss
[7] = molecular target: Macrophage colony-stimulating factor 1 receptor (Homo sapiens, UniProt P07333); experiment: Inhibition of cFMS by HTRF assay
[8] = molecular target: Mitogen-activated protein kinase 3 (Homo sapiens, UniProt P27361); experiment: Inhibition of ERK1 by HTRF assay
[9] = tested on: Mus musculus; experiment: Plasma concentration in BALB/c mouse at 30 mg/kg, po; type: ADME, organism-based; design: dose 30 mg/kg, route oral; settings: in vivo
[10] = molecular target: Tyrosine-protein kinase ITK/TSK (Homo sapiens, UniProt Q08881); experiment: Inhibition of Itk by HTRF assay
[11] = molecular target: Tyrosine-protein kinase Lyn (Homo sapiens, UniProt P07948); experiment: Inhibition of Lyn by HTRF assay
[12] = tested on: Mus musculus; experiment: Inhibition of anti-CD3-induced IL2 production in BALB/c mouse at 10 mg/kg, po by ELISA relative to control; type: functional
[13] = organism: Mus musculus; experiment: Inhibition of anti-CD3-induced IL2 production in BALB/c mouse; type: functional
[14] = molecular target: Mitogen-activated protein kinase 14 (Homo sapiens, UniProt Q16539); experiment: Inhibition of p38alpha by HTRF assay
[15] = molecular target: Serine/threonine-protein kinase pim-1 (Homo sapiens, UniProt P11309); experiment: Inhibition of PIM1 by HTRF assay
[16] = molecular target: Mitogen-activated protein kinase 9 (Homo sapiens, UniProt P45984); experiment: Inhibition of JNK2 by HTRF assay
[17] = molecular target: Ribosomal protein S6 kinase alpha-5 (Homo sapiens, UniProt O75582); experiment: Inhibition of MSK1 by HTRF assay
[18] = Inhibition of Aurora1 by HTRF assay
[19] = molecular target: Vascular endothelial growth factor receptor 2 (Homo sapiens, UniProt P35968); experiment: Inhibition of KDR by HTRF assay
[20] = tested on: Lymphocyte; experiment: Inhibition of T cell activation in human peripheral blood lymphocytes by mixed lymphocyte reaction; type: functional, cell-based
[21] = Tmax in Sprague-Dawley rat at 2 mg/kg; type: ADME, organism-based; design: dose 2 mg/kg; settings: in vivo
[22] = Protein binding in rat plasma; type: ADME, cell-free; settings: read-out: PB (converted)
[23] = Cmax in Sprague-Dawley rat at 2 mg/kg, po; type: ADME, organism-based; design: dose 2 mg/kg, route oral; settings: in vivo
[24] = molecular target: Angiopoietin-1 receptor (Homo sapiens, UniProt Q02763); experiment: Inhibition of Tie2 by HTRF assay
[25] = molecular target: Proto-oncogene tyrosine-protein kinase Src (Homo sapiens, UniProt P12931); experiment: Inhibition of Src by HTRF assay
[26] = molecular target: Ribosomal protein S6 kinase beta-1 (Homo sapiens, UniProt P23443); experiment: Inhibition of P70S6K by HTRF assay
[27] = molecular target: Tyrosine-protein kinase Fyn (Homo sapiens, UniProt P06241); experiment: Inhibition of Fyn by HTRF assay
[28] = Inhibition of IRK by HTRF assay
[29] = molecular target: Tyrosine-protein kinase ABL1 (Homo sapiens, UniProt P00519); experiment: Inhibition of Abl by HTRF assay
[30] = molecular target: Serine/threonine-protein kinase PAK 2 (Homo sapiens, UniProt Q13177); experiment: Inhibition of PAK2 by HTRF assay
[31] = molecular target: Tyrosine-protein kinase SYK (Homo sapiens, UniProt P43405); experiment: Inhibition of Syk by HTRF assay
[32] = tested on: Plasma; experiment: Unbound EC50 of ligand in mouse plasma
[33] = Inhibition of PKBalpha by HTRF assay
[34] = Inhibition of Aurora2 by HTRF assay
[35] = molecular target: Macrophage-stimulating protein receptor (Homo sapiens, UniProt Q04912); experiment: Inhibition of RON by HTRF assay
[36] = tested on: Mus musculus; experiment: Plasma concentration in BALB/c mouse at 100 mg/kg, po; type: ADME, organism-based; design: dose 100 mg/kg, route oral; settings: in vivo
[37] = tested on: Mus musculus; experiment: Inhibition of anti-CD3-induced IL2 production in BALB/c mouse at 100 mg/kg, po by ELISA relative to control; type: functional
[38] = tested on: Mus musculus; experiment: Inhibition of anti-CD3-induced IL2 production in BALB/c mouse at 30 mg/kg, po by ELISA relative to control; type: functional
[39] = molecular target: High affinity nerve growth factor receptor (Homo sapiens, UniProt P04629); experiment: Inhibition of TrkA by HTRF assay
[40] = tested on: Jurkat; experiment: Inhibition of IL2 production in human Jurkat cells stimulated with phorbol 12-myristyl 13-acetate in presence of calcium ionophore; type: functional, cell-based
[41] = molecular target: T1, Tyrosine-protein kinase JAK3 (Homo sapiens, UniProt P52333); experiment: Inhibition of Jak3 by HTRF assay
T1 sequence (P52333 whole entry): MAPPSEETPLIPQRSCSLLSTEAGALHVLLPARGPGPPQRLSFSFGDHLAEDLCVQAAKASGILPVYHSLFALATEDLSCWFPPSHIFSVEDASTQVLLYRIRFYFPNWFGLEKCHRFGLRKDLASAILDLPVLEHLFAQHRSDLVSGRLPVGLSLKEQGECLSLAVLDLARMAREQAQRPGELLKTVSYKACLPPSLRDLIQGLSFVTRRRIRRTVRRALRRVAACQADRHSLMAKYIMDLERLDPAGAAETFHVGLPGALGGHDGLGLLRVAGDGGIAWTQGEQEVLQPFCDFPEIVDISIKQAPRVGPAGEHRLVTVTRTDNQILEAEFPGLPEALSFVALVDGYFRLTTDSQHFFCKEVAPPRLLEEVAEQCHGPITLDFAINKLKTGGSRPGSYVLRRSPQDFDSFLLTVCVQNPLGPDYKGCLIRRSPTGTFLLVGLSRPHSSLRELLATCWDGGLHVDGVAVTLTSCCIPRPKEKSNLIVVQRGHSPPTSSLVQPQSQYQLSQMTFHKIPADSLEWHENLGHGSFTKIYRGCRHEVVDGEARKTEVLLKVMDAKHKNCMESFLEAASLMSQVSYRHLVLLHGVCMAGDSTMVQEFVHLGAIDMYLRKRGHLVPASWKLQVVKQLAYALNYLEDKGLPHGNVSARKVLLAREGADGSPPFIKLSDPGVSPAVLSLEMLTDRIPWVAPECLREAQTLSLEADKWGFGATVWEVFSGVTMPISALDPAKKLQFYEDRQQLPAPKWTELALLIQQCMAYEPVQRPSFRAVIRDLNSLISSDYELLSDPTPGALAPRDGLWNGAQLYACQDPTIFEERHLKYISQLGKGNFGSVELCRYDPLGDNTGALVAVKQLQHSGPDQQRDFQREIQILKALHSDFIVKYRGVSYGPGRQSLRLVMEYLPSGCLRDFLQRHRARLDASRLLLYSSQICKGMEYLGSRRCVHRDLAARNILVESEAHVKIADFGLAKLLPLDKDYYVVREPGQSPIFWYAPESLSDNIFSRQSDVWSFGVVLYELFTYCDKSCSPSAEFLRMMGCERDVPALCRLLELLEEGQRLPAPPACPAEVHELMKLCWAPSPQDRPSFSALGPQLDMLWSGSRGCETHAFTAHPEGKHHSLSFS

[42] = tested on: Mus musculus; experiment: Inhibition of anti-CD3-induced IL2 production in orally dosed BALB/c mouse by ELISA; type: functional; settings: po
[43] = Half life in Sprague-Dawley rat at 0.5 mg/kg, iv; type: ADME, organism-based; design: dose 0.5 mg/kg, route intravenous; settings: in vivo
[44] = Inhibition of PKAalpha by HTRF assay
[45] = molecular target: Tyrosine-protein kinase Lck (Homo sapiens, UniProt P06239)
Description: Inhibition of Lck by HTRF assay

[46] = Protein binding in mouse plasma; type: ADME, cell-free; settings: read-out: PB (converted)
[47] = AUC (0 to infinity) in Sprague-Dawley rat at 2 mg/kg, po; type: ADME, organism-based; design: time infinity, dose 2 mg/kg, route oral; settings: plasma

Proto-oncogene tyrosine-protein kinase Src, sequence (P12931 2-536 limits assumed): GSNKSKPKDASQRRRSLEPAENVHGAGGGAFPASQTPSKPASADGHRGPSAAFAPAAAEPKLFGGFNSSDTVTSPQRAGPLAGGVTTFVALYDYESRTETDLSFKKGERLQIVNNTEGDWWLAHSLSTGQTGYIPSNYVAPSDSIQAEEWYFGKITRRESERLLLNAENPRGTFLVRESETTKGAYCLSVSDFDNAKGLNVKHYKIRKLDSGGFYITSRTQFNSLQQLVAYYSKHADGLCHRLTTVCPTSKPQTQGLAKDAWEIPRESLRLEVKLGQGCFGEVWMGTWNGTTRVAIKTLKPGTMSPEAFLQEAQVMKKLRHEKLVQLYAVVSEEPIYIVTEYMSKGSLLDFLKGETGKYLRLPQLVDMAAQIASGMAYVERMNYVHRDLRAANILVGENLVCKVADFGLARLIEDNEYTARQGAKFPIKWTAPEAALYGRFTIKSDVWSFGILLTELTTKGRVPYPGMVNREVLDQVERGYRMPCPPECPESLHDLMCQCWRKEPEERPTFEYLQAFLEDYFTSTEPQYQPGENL
Ribosomal protein S6 kinase beta-1, sequence (P23443 whole entry): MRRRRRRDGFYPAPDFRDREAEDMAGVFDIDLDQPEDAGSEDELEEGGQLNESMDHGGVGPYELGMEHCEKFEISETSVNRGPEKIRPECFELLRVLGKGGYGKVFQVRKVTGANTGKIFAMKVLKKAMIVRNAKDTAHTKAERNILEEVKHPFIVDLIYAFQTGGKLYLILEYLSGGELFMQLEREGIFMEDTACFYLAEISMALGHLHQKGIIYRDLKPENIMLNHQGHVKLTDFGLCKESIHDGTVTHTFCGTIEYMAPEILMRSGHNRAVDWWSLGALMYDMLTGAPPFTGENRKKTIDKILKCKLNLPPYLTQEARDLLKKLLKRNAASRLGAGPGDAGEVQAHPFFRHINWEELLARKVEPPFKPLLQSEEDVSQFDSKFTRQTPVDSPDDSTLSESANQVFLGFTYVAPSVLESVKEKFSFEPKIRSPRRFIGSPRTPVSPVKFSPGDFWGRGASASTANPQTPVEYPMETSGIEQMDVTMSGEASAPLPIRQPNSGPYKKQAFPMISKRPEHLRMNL
Tyrosine-protein kinase Lyn, sequence (P07948 whole entry): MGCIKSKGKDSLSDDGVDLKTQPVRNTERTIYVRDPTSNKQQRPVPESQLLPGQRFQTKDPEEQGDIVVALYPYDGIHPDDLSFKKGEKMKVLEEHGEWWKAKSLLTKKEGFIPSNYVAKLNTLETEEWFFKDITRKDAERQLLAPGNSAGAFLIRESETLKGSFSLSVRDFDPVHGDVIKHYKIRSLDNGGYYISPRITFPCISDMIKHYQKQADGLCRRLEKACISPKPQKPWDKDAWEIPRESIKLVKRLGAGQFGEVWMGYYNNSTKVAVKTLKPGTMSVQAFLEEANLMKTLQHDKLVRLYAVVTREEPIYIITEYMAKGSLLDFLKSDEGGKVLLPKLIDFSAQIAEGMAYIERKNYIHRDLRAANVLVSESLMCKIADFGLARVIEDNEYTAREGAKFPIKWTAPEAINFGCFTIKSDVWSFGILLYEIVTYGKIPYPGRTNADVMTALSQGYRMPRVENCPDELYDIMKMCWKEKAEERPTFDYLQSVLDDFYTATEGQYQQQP
Macrophage colony-stimulating factor 1 receptor, sequence (P07333 whole entry): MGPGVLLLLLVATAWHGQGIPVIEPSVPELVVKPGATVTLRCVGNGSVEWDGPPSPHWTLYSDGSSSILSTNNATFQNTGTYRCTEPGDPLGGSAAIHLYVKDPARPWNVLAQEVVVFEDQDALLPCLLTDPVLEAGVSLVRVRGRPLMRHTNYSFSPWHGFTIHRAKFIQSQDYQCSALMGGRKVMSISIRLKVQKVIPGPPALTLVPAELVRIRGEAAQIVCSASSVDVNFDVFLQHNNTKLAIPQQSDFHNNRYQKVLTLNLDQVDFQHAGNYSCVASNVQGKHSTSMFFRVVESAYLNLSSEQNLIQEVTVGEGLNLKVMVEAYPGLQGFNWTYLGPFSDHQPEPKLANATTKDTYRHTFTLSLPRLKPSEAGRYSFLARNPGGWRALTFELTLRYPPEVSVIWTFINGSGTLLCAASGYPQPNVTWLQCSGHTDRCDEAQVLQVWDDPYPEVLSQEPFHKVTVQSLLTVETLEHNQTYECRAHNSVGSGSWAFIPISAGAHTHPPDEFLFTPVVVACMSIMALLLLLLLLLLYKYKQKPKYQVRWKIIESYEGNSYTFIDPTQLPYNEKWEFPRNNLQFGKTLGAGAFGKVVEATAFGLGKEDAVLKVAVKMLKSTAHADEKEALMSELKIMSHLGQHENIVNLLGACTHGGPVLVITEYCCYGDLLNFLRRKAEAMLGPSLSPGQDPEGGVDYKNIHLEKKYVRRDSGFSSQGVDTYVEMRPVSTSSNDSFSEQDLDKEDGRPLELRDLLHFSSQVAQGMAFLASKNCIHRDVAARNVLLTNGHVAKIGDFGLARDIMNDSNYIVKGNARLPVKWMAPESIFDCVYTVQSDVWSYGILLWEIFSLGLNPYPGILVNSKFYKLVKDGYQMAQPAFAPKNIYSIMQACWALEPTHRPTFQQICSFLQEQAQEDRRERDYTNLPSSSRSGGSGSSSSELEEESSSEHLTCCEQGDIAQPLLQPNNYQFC
Serine/threonine-protein kinase pim-1, sequence (P11309 whole entry): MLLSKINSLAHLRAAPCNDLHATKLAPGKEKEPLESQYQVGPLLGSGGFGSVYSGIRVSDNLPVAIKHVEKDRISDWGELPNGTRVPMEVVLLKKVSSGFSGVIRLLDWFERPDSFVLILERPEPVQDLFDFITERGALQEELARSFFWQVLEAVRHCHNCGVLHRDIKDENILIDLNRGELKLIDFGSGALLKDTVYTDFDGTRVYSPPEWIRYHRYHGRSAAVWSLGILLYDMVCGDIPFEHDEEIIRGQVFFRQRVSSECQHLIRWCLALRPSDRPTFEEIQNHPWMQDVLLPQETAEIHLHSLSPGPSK
Serine/threonine-protein kinase PAK 2, sequence (Q13177 whole entry): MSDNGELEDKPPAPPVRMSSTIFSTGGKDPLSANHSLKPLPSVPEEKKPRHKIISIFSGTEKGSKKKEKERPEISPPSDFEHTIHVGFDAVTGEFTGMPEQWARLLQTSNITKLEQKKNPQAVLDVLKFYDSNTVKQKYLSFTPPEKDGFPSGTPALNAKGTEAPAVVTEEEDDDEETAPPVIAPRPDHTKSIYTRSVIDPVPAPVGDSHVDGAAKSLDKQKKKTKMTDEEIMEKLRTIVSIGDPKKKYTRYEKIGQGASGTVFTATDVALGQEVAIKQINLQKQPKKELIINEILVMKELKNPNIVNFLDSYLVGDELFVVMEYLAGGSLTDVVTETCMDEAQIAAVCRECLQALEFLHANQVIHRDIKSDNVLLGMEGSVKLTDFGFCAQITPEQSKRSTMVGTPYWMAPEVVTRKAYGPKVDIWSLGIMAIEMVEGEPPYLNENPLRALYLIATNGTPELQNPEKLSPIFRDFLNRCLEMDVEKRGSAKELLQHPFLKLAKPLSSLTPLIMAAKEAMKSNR
Mitogen-activated protein kinase 9, sequence (P45984 whole entry): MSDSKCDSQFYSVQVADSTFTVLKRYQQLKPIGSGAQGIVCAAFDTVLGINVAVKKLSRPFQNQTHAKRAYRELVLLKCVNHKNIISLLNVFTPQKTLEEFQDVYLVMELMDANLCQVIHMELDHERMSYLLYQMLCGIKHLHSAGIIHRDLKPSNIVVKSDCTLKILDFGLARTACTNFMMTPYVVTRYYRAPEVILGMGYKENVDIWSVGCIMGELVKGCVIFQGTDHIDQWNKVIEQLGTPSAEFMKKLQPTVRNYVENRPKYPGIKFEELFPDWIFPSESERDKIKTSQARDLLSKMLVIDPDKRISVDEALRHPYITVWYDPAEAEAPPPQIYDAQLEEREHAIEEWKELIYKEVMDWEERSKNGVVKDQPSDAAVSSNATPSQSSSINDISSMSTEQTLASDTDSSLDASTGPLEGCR
Mitogen-activated protein kinase 3, sequence (P27361 whole entry): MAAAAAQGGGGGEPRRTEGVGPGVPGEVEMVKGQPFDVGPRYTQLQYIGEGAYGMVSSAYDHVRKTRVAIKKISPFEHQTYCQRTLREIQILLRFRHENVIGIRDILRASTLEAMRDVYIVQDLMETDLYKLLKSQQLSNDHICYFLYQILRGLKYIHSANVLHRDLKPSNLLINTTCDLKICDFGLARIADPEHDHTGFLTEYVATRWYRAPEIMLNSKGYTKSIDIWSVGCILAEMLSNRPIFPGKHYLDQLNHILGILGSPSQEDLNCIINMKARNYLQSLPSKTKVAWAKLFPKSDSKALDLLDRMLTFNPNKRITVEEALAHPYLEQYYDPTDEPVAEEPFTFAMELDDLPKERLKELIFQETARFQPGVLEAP
Tyrosine-protein kinase Fyn, sequence (P06241 whole entry): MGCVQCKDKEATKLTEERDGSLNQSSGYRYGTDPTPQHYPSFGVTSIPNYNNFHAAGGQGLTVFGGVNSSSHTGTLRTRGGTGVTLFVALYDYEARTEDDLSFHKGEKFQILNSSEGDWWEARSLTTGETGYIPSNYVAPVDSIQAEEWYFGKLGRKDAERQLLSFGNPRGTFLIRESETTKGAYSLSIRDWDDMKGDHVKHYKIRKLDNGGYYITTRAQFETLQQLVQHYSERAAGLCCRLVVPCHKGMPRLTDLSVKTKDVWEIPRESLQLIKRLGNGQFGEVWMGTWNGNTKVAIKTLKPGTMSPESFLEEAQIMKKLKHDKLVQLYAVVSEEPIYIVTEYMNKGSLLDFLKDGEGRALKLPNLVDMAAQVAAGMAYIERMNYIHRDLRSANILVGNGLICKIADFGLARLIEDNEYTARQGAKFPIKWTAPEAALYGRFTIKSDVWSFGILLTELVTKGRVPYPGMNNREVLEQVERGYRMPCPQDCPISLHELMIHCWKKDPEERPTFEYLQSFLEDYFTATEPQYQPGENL

Work on `Cc1ccc(NC(=O)c2cccc(C(F)(F)F)c2)cc1C(=O)Nc1cnc(Nc2ccc(N3CCN(C)CC3)cc2)nc1` yielded a clearance [1] of 1.04 L/h/kg, an IC50 [2] of 0.007 µM and an IC50 [3] of 0.718 µM. For the same compound, the concentration [4] was 0.176 µM, the bioavailability [5] was 22% and the Vd [6] was 3.29 L/kg. The IC50 [7] was 0.04 µM, the IC50 [8] was > 100 µM and the concentration [9] was 0.434 µM. The IC50 [10] was > 25 µM, the IC50 [11] was 0.0009 µM and the inhibition in vivo at 10 mg/kg [12] was 53%. For the same compound, the Activity [13] was “Active”, the IC50 [14] was 0.005 µM and the IC50 [15] was > 30 µM. The IC50 [16] was 4.29 µM, the IC50 [17] was > 100 µM and the IC50 [18] was > 8.3 µM. For the same compound, the IC50 [19] was 0.024 µM, the IC50 [20] was 0.011 µM and the Tmax [21] was 4.67 h. The fraction unbound [22] was 0.006, the Cmax [23] was 0.049 µg/mL and the IC50 [24] was 9.95 µM. The IC50 [25] was 0.003 µM, the IC50 [26] was > 100 µM and the IC50 [27] was 0.003 µM. The IC50 [28] was > 5 µM, the IC50 [29] was 0.002 µM and the IC50 [30] was > 25 µM. For the same compound, the IC50 [31] was > 5 µM, the EC50 unbound [32] was 0.004 µM and the IC50 [33] was > 100 µM. The IC50 [34] was > 25 µM, the IC50 [35] was > 25 µM and the concentration [36] was 1.54 µM. For the same compound, the inhibition in vivo at 100 mg/kg [37] was 91%, the inhibition in vivo at 30 mg/kg [38] was 89% and the IC50 [39] was > 5 µM. The IC50 [40] was > 20 µM, the IC50 [41] was > 25 µM and the ED50 [42] was 9.4 mg/kg. For the same compound, the half-life [43] was 3.2 h, the IC50 [44] was > 85 µM and the IC50 [45] was 0.0006 µM. It also gave a fraction unbound [46] of 0.022 and an AUC(0-inf) [47] of 0.419 µg·h/mL.
